39 molecules from US20220347175A1, “PYRIDAZINONE DERIVATIVE” (Sumitomo Dainippon Pharma Co., Ltd., priority 2018, published 2022) can be followed below.

One assay has as its target T1, human Nav1.5 (Homo sapiens, UniProt Q14524).
T1 construct: expressed in transfected cells; host or cells: CHO-K1 (T-REx System, ThermoFisher Scientific)
Put plainly: Amplification of Nav1.5-derived voltage-dependent sodium current (Nav1.5 current), cell line stably expressing human Nav1.5, automated patch clamp. The format is cell-based. The note with it: read-out: Nav1.5 current amplification rate (%); for activation at 10 µM: 10 μmol/L compound, change of the area under the curve of Nav1.5 current (Test Result 1); for activation at 3 µM: compound 3 μmol/L; for activation at 3 µM / activation at 1 µM: CHO-K1 stably expressing human Nav1.5; for activation at 1 µM: compound 1 μmol/L.

For the next assay, the target named is T2, human Nav1.1 (Homo sapiens, UniProt P35498).
T2 construct: host or cells: HEK293
Put plainly: Amplification of Nav1.1-derived voltage-dependent sodium current (Nav1.1 current), cell line stably expressing human Nav1.1, automated patch clamp. The following applies: read-out: Nav1.1 current amplification rate (%); for activation at 10 µM: 10 μmol/L compound, change of the area under the curve of Nav1.1 current (Test Result 1); for activation at 3 µM: compound 3 μmol/L; for activation at 3 µM / activation at 1 µM: HEK293 stably expressing human Nav1.1; for activation at 1 µM: compound 1 μmol/L. The format is cell-based. In outline:
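Automated whole-cell voltage-clamp recordings used HEK293 cells stably expressing human Nav1.1, keeping only cells with >500 pA current, with currents evoked by ramp voltage. Compounds were applied in extracellular fluid with 1% DMSO, and amplification (%) was computed from peak current or AUC after versus before addition.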
(In general: In patch-clamp work, channel activity is measured electrically.)

T1 sequence (Q14524 1-2015 isoform Q14524-2): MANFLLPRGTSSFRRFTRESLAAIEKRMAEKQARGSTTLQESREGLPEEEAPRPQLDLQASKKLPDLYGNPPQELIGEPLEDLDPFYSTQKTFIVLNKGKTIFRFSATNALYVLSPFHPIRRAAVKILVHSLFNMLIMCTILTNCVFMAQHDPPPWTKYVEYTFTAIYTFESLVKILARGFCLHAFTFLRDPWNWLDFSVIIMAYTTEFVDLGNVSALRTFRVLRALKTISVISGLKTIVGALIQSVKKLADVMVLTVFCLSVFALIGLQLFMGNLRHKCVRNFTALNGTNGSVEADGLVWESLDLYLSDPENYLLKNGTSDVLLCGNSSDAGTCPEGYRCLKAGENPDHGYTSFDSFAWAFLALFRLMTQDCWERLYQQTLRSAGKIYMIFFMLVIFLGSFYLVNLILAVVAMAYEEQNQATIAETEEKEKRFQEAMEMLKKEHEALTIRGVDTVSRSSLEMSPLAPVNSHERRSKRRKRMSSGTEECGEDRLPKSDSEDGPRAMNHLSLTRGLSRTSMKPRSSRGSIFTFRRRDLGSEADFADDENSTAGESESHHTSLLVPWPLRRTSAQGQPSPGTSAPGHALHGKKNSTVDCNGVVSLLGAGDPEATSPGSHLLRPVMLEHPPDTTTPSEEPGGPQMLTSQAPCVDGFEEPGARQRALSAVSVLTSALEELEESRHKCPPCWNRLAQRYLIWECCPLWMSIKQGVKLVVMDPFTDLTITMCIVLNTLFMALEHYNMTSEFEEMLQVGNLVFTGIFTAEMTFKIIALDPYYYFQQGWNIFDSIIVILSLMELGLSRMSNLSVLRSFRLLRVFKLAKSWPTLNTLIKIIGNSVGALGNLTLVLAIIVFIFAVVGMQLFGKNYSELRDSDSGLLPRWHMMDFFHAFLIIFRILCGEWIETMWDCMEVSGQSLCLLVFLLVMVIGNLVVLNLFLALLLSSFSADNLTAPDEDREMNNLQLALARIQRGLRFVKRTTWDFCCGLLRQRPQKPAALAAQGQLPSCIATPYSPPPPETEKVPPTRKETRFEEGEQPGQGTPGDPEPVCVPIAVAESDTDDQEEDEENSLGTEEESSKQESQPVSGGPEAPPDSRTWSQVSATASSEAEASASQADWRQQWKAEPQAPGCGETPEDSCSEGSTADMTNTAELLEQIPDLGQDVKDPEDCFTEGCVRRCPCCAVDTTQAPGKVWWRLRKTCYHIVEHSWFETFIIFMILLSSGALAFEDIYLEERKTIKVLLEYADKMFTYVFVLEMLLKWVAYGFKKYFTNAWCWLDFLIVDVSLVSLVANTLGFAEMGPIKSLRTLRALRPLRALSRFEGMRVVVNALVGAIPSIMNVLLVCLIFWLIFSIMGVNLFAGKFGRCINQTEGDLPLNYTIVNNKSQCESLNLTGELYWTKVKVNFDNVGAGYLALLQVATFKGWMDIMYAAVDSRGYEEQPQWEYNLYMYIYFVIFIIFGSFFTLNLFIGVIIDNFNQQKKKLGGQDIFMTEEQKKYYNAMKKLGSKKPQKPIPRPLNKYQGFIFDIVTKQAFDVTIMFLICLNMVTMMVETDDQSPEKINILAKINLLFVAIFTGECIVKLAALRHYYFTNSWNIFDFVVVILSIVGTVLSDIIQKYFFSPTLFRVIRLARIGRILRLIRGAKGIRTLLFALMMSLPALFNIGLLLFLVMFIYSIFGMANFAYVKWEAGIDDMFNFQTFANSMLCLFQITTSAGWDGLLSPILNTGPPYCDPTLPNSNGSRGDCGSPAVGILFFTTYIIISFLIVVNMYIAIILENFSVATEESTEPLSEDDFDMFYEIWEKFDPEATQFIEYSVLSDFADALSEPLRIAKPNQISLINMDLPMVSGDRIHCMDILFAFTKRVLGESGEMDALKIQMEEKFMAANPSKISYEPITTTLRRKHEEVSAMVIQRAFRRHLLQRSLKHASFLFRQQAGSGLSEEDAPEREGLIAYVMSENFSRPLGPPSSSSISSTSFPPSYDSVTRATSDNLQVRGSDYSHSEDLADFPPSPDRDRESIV

For the molecule `O=C(Cn1nc(N2CCC3(CCC3)C2)ccc1=O)N1CCN(c2ccccc2)CC1` [Example 188], the activation at 10 µM on human Nav1.5 was -2%; on human Nav1.1, 30%.
Taken in the same sequence, the figures for `CC1CCN(c2ccc(=O)n(CC(=O)N3CCc4cc(C(F)(F)F)ccc43)n2)CC1` [Example 189] were -2% and 3%.
On to `O=C(Cn1nc(N2CCC3(CCC3)CC2)ccc1=O)Nc1ccc2c(c1)COC2` [Example 190], for which the activation at 10 µM on human Nav1.5 came out at 12%; at human Nav1.1, 100%.
On to `O=C(Cn1nc(N2CCC3(CCC3)C2)ccc1=O)Nc1ccc2c(c1)OCCO2` [Example 191], for which the results for the activation at 3 µM at human Nav1.5 and at human Nav1.1 were 2% and 52%, respectively.
Regarding `CC1(C)CCN(c2ccc(=O)n(CC(=O)Nc3ccn4ccnc4c3)n2)CC1` [Example 192], the activation at 10 µM at human Nav1.5 is 2%; on human Nav1.1 it was 137%.
Taken in the same sequence, the figures for `Cc1cc(N2CCC3(CCCC3)C2)nn(CC(=O)Nc2ccc3ocnc3c2)c1=O` [Example 193] were 0% and 219%.
For `Cc1cc(=O)n(CC(=O)Nc2ccc3ocnc3c2)nc1N1CCC2(CCCC2)C1` [Example 194], in that order: 33% and 252%.
Taken in the same sequence, the figures for `COc1cc(=O)n(CC(=O)Nc2ccc3ocnc3c2)nc1N1CCC2(CCCC2)C1` [Example 195] were 29% and 209%.
For `CN(C)c1cc(N2CCC3(CCCC3)C2)nn(CC(=O)Nc2ccc3ocnc3c2)c1=O` [Example 196], the activation at 10 µM amounted to 18% on human Nav1.5 and 225% on human Nav1.1.
Taken in the same sequence, the figures for `CN(C)c1cc(=O)n(CC(=O)Nc2ccc3ocnc3c2)nc1N1CCC2(CCCC2)C1` [Example 197] were 56% and 318%.
For `Cc1cc(NC(=O)Cn2nc(N3CCC4(CCCC4)C3)cc(C)c2=O)cc(C)n1` [Example 198], in that order: -9% and 36%.
For `Cc1cc(NC(=O)Cn2nc(N3CCC4(CCCC4)C3)c(C)cc2=O)cc(C)n1` [Example 199], in that order: 1% and 36%.
For `Cc1cc(N2CCC(C)CC2)nn(CC(=O)Nc2ccc3ocnc3c2)c1=O` [Example 200], the activation at 10 µM at human Nav1.5 stood at 5%; on human Nav1.1, 103%.
Taken in the same sequence, the figures for `Cc1cc(=O)n(CC(=O)Nc2ccc3ocnc3c2)nc1N1CCC(C)CC1` [Example 201] were 1% and 139%.
For `Cc1cc(N2CCC3(CCC3)C2)nn(CC(=O)Nc2ccc3c(c2)OCC3)c1=O` [Example 202], in that order: 3% and 131%.
Taken in the same sequence, the figures for `Cc1cc(=O)n(CC(=O)Nc2ccc3c(c2)OCC3)nc1N1CCC2(CCC2)C1` [Example 203] were 12% and 267%.
For `Cc1cc(N2CCC3(CCC3)C2)nn(CC(=O)Nc2ccc3ocnc3c2)c1=O` [Example 204], the activation at 10 µM at human Nav1.5 was 8%; on human Nav1.1, 189%.
Turning to `Cc1cc(=O)n(CC(=O)Nc2ccc3ocnc3c2)nc1N1CCC2(CCC2)C1` [Example 205], the values for the activation at 10 µM at human Nav1.5 and on human Nav1.1 were 20% and 235%, respectively.
For `O=C(Cn1nc(N2CCC3(CCCC3)C2)cc(N2CCCC2)c1=O)Nc1ccc2ocnc2c1` [Example 206], in that order: 33% and 154%.
For `O=C(Cn1nc(N2CCC3(CCC3)C2)cc(N2CCCC2)c1=O)Nc1ccc2ocnc2c1` [Example 207], the values for the activation at 10 µM at human Nav1.5 and at human Nav1.1 were 7% and 89%, respectively.
For `O=C(Cn1nc(N2CCC3(CCC3)C2)c(N2CCCC2)cc1=O)Nc1ccc2ocnc2c1` [Example 208], in that order: 18% and 200%.
Regarding `Cc1c(N2CCC3(CCC3)C2)nn(CC(=O)Nc2ccn3ccnc3c2)c(=O)c1C` [Example 209], the activation at 10 µM on human Nav1.5 turned out to be 16%; on human Nav1.1 it was 179%.
For `CN(C)c1cc(N2CCC(C)(C)CC2)nn(CC(=O)Nc2ccn3ccnc3c2)c1=O` [Example 211], in that order: 8% and 212%.
Taken in the same sequence, the figures for `COc1cc(N2CCC(C)(C)CC2)nn(CC(=O)Nc2ccn3ccnc3c2)c1=O` [Example 212] were 3% and 74%.
For `COc1cc(N2CCC3(CCC3)C2)nn(CC(=O)Nc2ccn3ccnc3c2)c1=O` [Example 213], in that order: 5% and 136%.
Consider `CC1(C)CN(c2ccc(=O)n(CC(=O)Nc3ccc4ocnc4c3)n2)CCC12CC2(F)F` (stereo not drawn) [Example 214], for which the activation at 10 µM is -1% at human Nav1.5 and 64% on human Nav1.1.
For `Cc1nc2cc(NC(=O)Cn3nc(N4CCC(C)CC4)ccc3=O)cc(Cl)c2o1` [Example 215], in that order: 18% and 183%.
Taken in the same sequence, the figures for `CC1CCN(c2ccc(=O)n(CC(=O)Nc3cc(F)c4ocnc4c3)n2)CC1` [Example 216] were 3% and 121%.
As to `CC1CCN(c2ccc(=O)n(CC(=O)Nc3ccc(C(=O)N4CCCC4)nc3)n2)CC1` [Example 217], the activation at 10 µM at human Nav1.5 was 1%; on human Nav1.1 it was 25%.
Consider `CC1CCN(c2ccc(=O)n(CC(=O)N3CCc4c(N5CCOCC5)cccc43)n2)CC1` [Example 218], for which the activation at 1 µM at human Nav1.5 is 9%; at human Nav1.1, 155%.
With `CC1CCN(c2ccc(=O)n(CC(=O)N3CCc4cc(N5CCCC5=O)ccc43)n2)CC1` [Example 219], the values for the activation at 10 µM at human Nav1.5 and at human Nav1.1 were 12% and 97%, respectively.
With `CC1CCN(c2ccc(=O)n(CC(=O)N3CCc4cc(N5CCN(C)CC5)ccc43)n2)CC1` [Example 220], the values for the activation at 10 µM on human Nav1.5 and at human Nav1.1 were 5% and 50%, respectively.
For `CC1(C)CCN(c2ccc(=O)n(CC(=O)N3CCc4c(N5CCOCC5)cccc43)n2)CC1` [Example 221], in that order: 15% and 281%.
As to `CN(C)c1cc(N2CCC3(CCC3)C2)nn(CC(=O)N2CCc3c(N4CCOCC4)cccc32)c1=O` [Example 222], the results for the activation at 1 µM on human Nav1.5 and at human Nav1.1 were 11% and 137%, respectively.
As for `CN1CCN(c2cccc3c2CCN3C(=O)Cn2nc(N3CCC(C)(C)CC3)ccc2=O)CC1` [Example 223], the activation at 10 µM was determined as 0% at human Nav1.5 and 46% on human Nav1.1.
Taken in the same sequence, the figures for `COc1cc(N2CCC(C)(C)CC2)nn(CC(=O)N2CCc3c(N4CCOCC4)cccc32)c1=O` [Example 224] were 11% and 118%.
For `Cc1cc(N2CCC3(CCC3)C2)nn(CC(=O)N2CCc3c(N4CCN(C)CC4)cccc32)c1=O` [Example 225], in that order: 2% and 146%.
For `Cc1c(N2CCC3(CCC3)C2)nn(CC(=O)N2CCc3c(N4CCOCC4)cccc32)c(=O)c1C` [Example 226], in that order: 71% and 319%.
On to `COc1cc(N2CCC3(CCC3)C2)nn(CC(=O)N2CCc3c(N4CCOCC4)cccc32)c1=O` [Example 227], for which the activation at 3 µM at human Nav1.5 was 17%; on human Nav1.1, 303%.
